Consider 36 compounds from ChEMBL document CHEMBL2434827, “Selective inhibition of heme oxygenase-2 activity by analogs of 1-(4-chlorobenzyl)-2-(pyrrolidin-1-ylmethyl)-1H-benzimidazole (clemizole): Exploration of the effects of substituents at the N-1 position” (Bioorg Med Chem, 2013).

Experiment [1] addresses T1, Heme oxygenase 1 (Rattus norvegicus, UniProt P06762).
T1 sequence (P06762 whole entry): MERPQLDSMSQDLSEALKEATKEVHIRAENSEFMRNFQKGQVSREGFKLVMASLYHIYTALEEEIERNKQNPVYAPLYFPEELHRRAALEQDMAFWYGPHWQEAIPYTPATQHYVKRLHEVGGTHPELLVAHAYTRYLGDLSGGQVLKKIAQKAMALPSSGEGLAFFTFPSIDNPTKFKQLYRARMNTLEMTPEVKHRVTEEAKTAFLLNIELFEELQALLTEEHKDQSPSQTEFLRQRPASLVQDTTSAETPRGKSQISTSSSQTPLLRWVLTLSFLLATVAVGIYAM
Kind of experiment: Inhibition of HO-1 in Sprague-Dawley rat spleen microsomal fractions assessed as carbon monoxide formation from methemalbumin after 10 mins by gas chromatography analysis. The experiment is classed as microsomes, Microsome.

For experiment [2], the species on record is Rattus norvegicus. Kind of experiment: Selectivity index, ratio of IC50 for HO-1 in Sprague-Dawley rat spleen microsomal fractions to IC50 for HO-2 in Sprague-Dawley rat brain microsomal fractions. The experiment is classed as microsomes. The following applies: Microsome.
For experiment [3], the target named is T2, Heme oxygenase 2 (Rattus norvegicus, UniProt P23711).
T2 sequence (P23711 whole entry): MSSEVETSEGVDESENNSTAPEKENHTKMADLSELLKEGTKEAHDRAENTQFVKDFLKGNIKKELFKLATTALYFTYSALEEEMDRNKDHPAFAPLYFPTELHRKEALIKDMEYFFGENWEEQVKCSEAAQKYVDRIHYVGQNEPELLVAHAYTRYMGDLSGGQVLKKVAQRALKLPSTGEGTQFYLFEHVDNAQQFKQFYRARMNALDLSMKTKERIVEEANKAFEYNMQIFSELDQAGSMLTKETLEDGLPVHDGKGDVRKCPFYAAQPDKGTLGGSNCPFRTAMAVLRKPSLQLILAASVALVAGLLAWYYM
Kind of experiment: Inhibition of HO-2 in Sprague-Dawley rat brain microsomal fractions assessed as carbon monoxide formation from methemalbumin after 10 mins by gas chromatography analysis. The experiment is classed as microsomes.

Turning to `CSc1ccc(Cn2c(CN3CCCC3)nc3ccccc32)cc1`, the IC50 – broadly, the midpoint of a concentration-inhibition curve – in experiment [1] was over 100 µM; in experiment [3], 15 µM. Further, the Ratio IC50 in experiment [2] is over 6.

As for `Clc1ccccc1Cn1c(CN2CCCC2)nc2ccccc21`, the IC50 in experiment [1] is over 100 µM; in experiment [3], 4.8 µM. For the same compound, the Ratio IC50 in experiment [2] is over 20.

`Clc1ccc(Cl)c(Cn2c(CN3CCCC3)nc3ccccc32)c1`: the half-inhibitory concentration (IC50) in experiment [1] was determined as 96 µM; in experiment [3] it was 4 µM. The Ratio IC50 in experiment [2] is 24.

As for `Brc1cccc(Cn2c(CN3CCCC3)nc3ccccc32)c1`, the IC50 in experiment [1] was over 100 µM; in experiment [3], 1.5 µM. Further, the Ratio IC50 in experiment [2] was over 66.

As for `c1ccc(C(c2ccccc2)n2c(CN3CCCC3)nc3ccccc32)cc1`, the concentration for half-maximal inhibition (IC50) in experiment [1] is over 100 µM; in experiment [3], 4.1 µM. Moreover, the Ratio IC50 in experiment [2] was over 24.

For the compound `Clc1cccc(Cl)c1Cn1c(CN2CCCC2)nc2ccccc21`, the results for the 50% inhibitory concentration (IC50) in experiment [1] and in experiment [3] were over 100 µM and 9.2 µM, respectively. In addition, the Ratio IC50 in experiment [2] was over 10.

As to `c1ccc2c(c1)nc(CN1CCCC1)n2CC1CCCCC1`, the IC50 in experiment [1] was over 100 µM; in experiment [3], 6 µM. For the same compound, the Ratio IC50 in experiment [2] was over 16.

In the case of `CC(C)c1ccc(Cn2c(CN3CCCC3)nc3ccccc32)cc1`, the IC50 in experiment [1] was over 100 µM; in experiment [3], 55 µM. For the same compound, in experiment [2], the Ratio IC50 was over 1.8.

Regarding `c1ccc2[nH]c(CN3CCCC3)nc2c1`, the IC50 in experiment [1] and in experiment [3] was over 100 µM in each case.

Turning to `c1ccc(OCCn2c(CN3CCCC3)nc3ccccc32)cc1`, the half-inhibitory concentration (IC50) in experiment [1] and in experiment [3] was over 100 µM each time.

As for `c1ccc2cc(Cn3c(CN4CCCC4)nc4ccccc43)ccc2c1`, the results for the half-maximal inhibitory concentration (IC50) in experiment [1] and in experiment [3] were over 100 µM and 5 µM, respectively. The Ratio IC50 in experiment [2] was over 20.

Regarding `Ic1ccc(Cn2c(CN3CCCC3)nc3ccccc32)cc1`, the half-inhibitory concentration (IC50) in experiment [1] is over 100 µM; in experiment [3] it was 7.6 µM. For the same compound, the Ratio IC50 in experiment [2] was over 13.

As to `c1ccc(CCn2c(CN3CCCC3)nc3ccccc32)cc1`, the IC50 in experiment [1] is over 100 µM; in experiment [3], 2.7 µM. The Ratio IC50 in experiment [2] was over 37.

`O=[N+]([O-])c1ccc(Cn2c(CN3CCCC3)nc3ccccc32)cc1`: the IC50 was over 100 µM in experiment [1] and 27 µM in experiment [3]. Moreover, in experiment [2], the Ratio IC50 is over 3.

As for `Clc1cc(Cl)cc(Cn2c(CN3CCCC3)nc3ccccc32)c1`, the 50% inhibitory concentration (IC50) is over 100 µM in experiment [1] and 2.1 µM in experiment [3]. In addition, the Ratio IC50 in experiment [2] is over 47.

On to `Cc1ccccc1Cn1c(CN2CCCC2)nc2ccccc21`, for which the IC50 in experiment [1] was 76 µM; in experiment [3] it was 1.8 µM. In addition, the Ratio IC50 in experiment [2] stood at 42.

For `O=[N+]([O-])c1ccccc1Cn1c(CN2CCCC2)nc2ccccc21`, the values for the half-inhibitory concentration (IC50) in experiment [1] and in experiment [3] were over 100 µM and 3.5 µM, respectively. For the same compound, the Ratio IC50 in experiment [2] was over 28.

In the case of `Cc1cccc(Cn2c(CN3CCCC3)nc3ccccc32)c1`, the IC50 was over 100 µM in experiment [1] and 5 µM in experiment [3]. In addition, the Ratio IC50 in experiment [2] is over 20.

For `N#Cc1cccc(Cn2c(CN3CCCC3)nc3ccccc32)c1`, the IC50 was over 100 µM in experiment [1] and 15.8 µM in experiment [3]. The Ratio IC50 in experiment [2] is over 6.

In the case of `Fc1ccc(Cn2c(CN3CCCC3)nc3ccccc32)cc1`, the half-inhibitory concentration (IC50) in experiment [1] is over 100 µM; in experiment [3], 2 µM. The Ratio IC50 in experiment [2] is over 50.

`O=[N+]([O-])c1cccc(Cn2c(CN3CCCC3)nc3ccccc32)c1`: the IC50 in experiment [1] is over 100 µM; in experiment [3] it was 1.3 µM. The Ratio IC50 in experiment [2] was over 76.

On to `c1ccc(Cn2c(CN3CCCC3)nc3ccccc32)cc1`, for which the results for the 50% inhibitory concentration (IC50) in experiment [1] and in experiment [3] were over 100 µM and 3.1 µM, respectively. Also, in experiment [2], the Ratio IC50 was over 32.

On to `c1ccc(COc2ccc(Cn3c(CN4CCCC4)nc4ccccc43)cc2)cc1`, for which the half-maximal inhibitory concentration (IC50) in experiment [1] was over 100 µM; in experiment [3], 63 µM. Also, the Ratio IC50 in experiment [2] was over 1.5.

For `Brc1ccc(Cn2c(CN3CCCC3)nc3ccccc32)cc1`, the IC50 in experiment [1] is over 100 µM; in experiment [3], 2.6 µM. The Ratio IC50 in experiment [2] was over 38.

For the compound `COc1ccc(Cn2c(CN3CCCC3)nc3ccccc32)cc1`, the IC50 in experiment [1] is over 100 µM; in experiment [3] it was 18 µM. The Ratio IC50 in experiment [2] is over 5.

As for `Clc1ccc(Cn2c(CN3CCCC3)nc3ccccc32)c(Cl)c1`, the IC50 in experiment [1] worked out at 62 µM; in experiment [3], 6.1 µM. Also, the Ratio IC50 in experiment [2] came out at 10.

Consider `FC(F)(F)c1ccc(Cn2c(CN3CCCC3)nc3ccccc32)cc1`, for which the IC50 in experiment [1] was over 100 µM; in experiment [3] it was 15.6 µM. Also, the Ratio IC50 in experiment [2] was over 6.4.

With `Brc1ccccc1Cn1c(CN2CCCC2)nc2ccccc21`, the 50% inhibitory concentration (IC50) came to 42 µM in experiment [1] and 1.6 µM in experiment [3]. Moreover, the Ratio IC50 in experiment [2] was found to be 26.

On to `Clc1cccc(Cn2c(CN3CCCC3)nc3ccccc32)c1Cl`, for which the 50% inhibitory concentration (IC50) in experiment [1] is over 100 µM; in experiment [3] it was 14.7 µM. In addition, the Ratio IC50 in experiment [2] is over 6.

With `Cc1ccc(Cn2c(CN3CCCC3)nc3ccccc32)cc1`, the IC50 is over 100 µM in experiment [1] and 5 µM in experiment [3]. The Ratio IC50 in experiment [2] is over 20.

As to `Clc1ccc(Cn2c(CN3CCCC3)nc3ccccc32)cc1Cl`, the half-inhibitory concentration (IC50) in experiment [1] is over 100 µM; in experiment [3], 17 µM. Also, the Ratio IC50 in experiment [2] was over 5.

For the compound `Clc1ccc(Cn2c(CN3CCCC3)nc3ccccc32)cc1`, the IC50 in experiment [1] is over 100 µM; in experiment [3], 3.4 µM. Further, the Ratio IC50 in experiment [2] was over 29.

For `N#Cc1ccccc1Cn1c(CN2CCCC2)nc2ccccc21`, the results for the IC50 in experiment [1] and in experiment [3] were over 100 µM and 4 µM, respectively. The Ratio IC50 in experiment [2] is over 25.

On to `CCCn1c(CN2CCCC2)nc2ccccc21`, for which the IC50 in experiment [1] was over 100 µM; in experiment [3], 27 µM. Also, the Ratio IC50 in experiment [2] is over 3.

For the compound `Clc1cccc(Cn2c(CN3CCCC3)nc3ccccc32)c1`, the half-maximal inhibitory concentration (IC50) was over 100 µM in experiment [1] and 1.65 µM in experiment [3]. The Ratio IC50 in experiment [2] is over 60.

For `N#Cc1ccc(Cn2c(CN3CCCC3)nc3ccccc32)cc1`, the values for the IC50 in experiment [1] and in experiment [3] were over 100 µM and 11 µM, respectively. Also, the Ratio IC50 in experiment [2] was over 9.
